{
  "source": "patent US7972633B2",
  "about": "“Nutritional supplements for healthy memory and mental function” (Applied Cognitive Sciences, LLC, priority 2007, dated 2011)",
  "origin": "cited, not measured here",
  "key": {"[1]": {"test_system": "healthy adults who have no evidence of cerebral dysfunction", "conditions": "two days' supplementation with 10, 20 or 40 mg daily, compared to placebo"}, "[2]": {"test_system": "patients with mild to moderate transient or permanent impairment of cognitive performance", "conditions": "10 or 20 mg three times a day for 16 weeks, compared to placebo"}},
  "data": [
    {"smiles": "CCOC(=O)C1=C[C@]2(CC)CCCN3CCc4c(n1c1ccccc41)[C@@H]32", "note": "[vinpocetine, Vinpocetine]", "values": [
      {"measurement": "ability to distinguish discrete sensory data, reaction time, short-term memory functions", "setting": "[1]", "value": "significantly greater extent than placebo"},
      {"measurement": "concentration, memory and severity of illness", "setting": "[2]", "value": "significant improvements in concentration, memory, and reduced severity of illness"}
    ]}
  ]
}
